Where two headings read alike, the source gives them in different places.

Test [1] addresses T1, VqmA (Vibrio cholerae, UniProt A0A0F0AZW0). In words: biochemical.
Target sequence in this assay (A0A0F0AZW0 1-246 limits assumed): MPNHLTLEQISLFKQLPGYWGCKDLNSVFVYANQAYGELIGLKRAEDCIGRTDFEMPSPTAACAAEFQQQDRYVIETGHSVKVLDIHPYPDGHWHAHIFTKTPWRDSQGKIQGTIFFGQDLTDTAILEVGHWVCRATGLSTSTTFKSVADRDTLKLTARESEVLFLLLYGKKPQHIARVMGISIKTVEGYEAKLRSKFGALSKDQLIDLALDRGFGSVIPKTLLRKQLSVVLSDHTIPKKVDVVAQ
Test [2] has as its target T1, VqmA. In words: biochemical. This is another data set of the same source.
Target sequence in this assay (A0A0F0AZW0 1-246): as the sequence (A0A0F0AZW0 1-246 limits assumed) above

On VqmA [1], `C[C@H]1NC(C)(C)CNC1=O` [compound 1, (R)-3,5,5-trimethylpiperazin-2-one] yielded a Kd of 10.3 ± 3.1 µM. Same read-out and setting: the result for `CC1NC(C)(C)CNC1=O` (stereo not drawn) [compound 2, 3,5,5-trimethylpiperazin-2-one] reads 7 ± 3.1 µM. In the case of `Cc1cnc(O)cn1` [compound 5, 5], at VqmA [2], binding was characterised by a dissociation constant (Kd) of 6 ± 1 µM.

For orientation: Kd means the equilibrium constant for the complex coming apart. The low end stands for tighter binding, the high end for weaker binding.
